Results reported in patent US10670605B2, “Cysteine reactive probes and uses thereof” (The Scripps Research Institute, priority 2015, dated 2020).

Assays:
Experiment in all cases: Competitive isoTOP-ABPP in situ (fragment-treated cells)
Format in all cases: cell-based
[1] = biological target: cysteines in MDA-MB-231 and Ramos cells (Homo sapiens, UniProt P62888)
[2] = biological target: T1, cysteines in MDA-MB-231 and Ramos cells (Homo sapiens, UniProt Q9ULW0)
T1 sequence (Q9ULW0 1-747): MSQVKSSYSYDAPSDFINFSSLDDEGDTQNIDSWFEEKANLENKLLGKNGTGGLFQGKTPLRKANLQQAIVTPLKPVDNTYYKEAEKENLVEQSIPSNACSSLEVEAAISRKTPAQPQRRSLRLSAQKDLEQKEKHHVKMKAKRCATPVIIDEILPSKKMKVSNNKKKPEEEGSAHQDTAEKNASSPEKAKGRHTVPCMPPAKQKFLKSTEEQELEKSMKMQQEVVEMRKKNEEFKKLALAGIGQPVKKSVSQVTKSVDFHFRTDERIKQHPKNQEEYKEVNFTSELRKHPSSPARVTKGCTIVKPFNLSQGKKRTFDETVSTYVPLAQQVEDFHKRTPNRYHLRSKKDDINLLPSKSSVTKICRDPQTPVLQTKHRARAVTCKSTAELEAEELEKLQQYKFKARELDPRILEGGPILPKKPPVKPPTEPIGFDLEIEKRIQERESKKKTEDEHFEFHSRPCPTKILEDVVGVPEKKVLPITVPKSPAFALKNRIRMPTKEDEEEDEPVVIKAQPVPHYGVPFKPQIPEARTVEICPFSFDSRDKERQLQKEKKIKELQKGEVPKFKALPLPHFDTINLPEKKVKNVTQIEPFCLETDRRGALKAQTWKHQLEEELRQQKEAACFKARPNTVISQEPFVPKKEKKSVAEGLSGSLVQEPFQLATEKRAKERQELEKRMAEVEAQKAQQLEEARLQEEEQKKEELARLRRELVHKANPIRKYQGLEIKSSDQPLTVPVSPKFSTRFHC

[3] = biological target: T2, cysteines in MDA-MB-231 and Ramos cells (Homo sapiens, UniProt P30101)
T2 sequence (P30101 25-505): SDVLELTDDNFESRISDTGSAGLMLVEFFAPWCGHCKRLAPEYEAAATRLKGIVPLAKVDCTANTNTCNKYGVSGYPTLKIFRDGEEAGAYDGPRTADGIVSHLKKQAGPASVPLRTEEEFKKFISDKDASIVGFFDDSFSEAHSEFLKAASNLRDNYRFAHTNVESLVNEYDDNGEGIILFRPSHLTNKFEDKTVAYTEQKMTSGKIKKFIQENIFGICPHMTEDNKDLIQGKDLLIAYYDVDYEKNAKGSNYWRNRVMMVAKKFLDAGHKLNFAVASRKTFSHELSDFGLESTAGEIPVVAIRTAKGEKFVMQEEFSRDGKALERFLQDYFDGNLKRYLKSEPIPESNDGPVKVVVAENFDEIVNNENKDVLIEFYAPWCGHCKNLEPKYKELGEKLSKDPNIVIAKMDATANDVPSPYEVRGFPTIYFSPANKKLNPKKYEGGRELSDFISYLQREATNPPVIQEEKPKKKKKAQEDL

[4] = biological target: cysteines in MDA-MB-231 and Ramos cells (Homo sapiens, UniProt Q16831)
Chain of cysteines in MDA-MB-231 and Ramos cells (Homo sapiens, UniProt Q16831) (Q16831 whole entry): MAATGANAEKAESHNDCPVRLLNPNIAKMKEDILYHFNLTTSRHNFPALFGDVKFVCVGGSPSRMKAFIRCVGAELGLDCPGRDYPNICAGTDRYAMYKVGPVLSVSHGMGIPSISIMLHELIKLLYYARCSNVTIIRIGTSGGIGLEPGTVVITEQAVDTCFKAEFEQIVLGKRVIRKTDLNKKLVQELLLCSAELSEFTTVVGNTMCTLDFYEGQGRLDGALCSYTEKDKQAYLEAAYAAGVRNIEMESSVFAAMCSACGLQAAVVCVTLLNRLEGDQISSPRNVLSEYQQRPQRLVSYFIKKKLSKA

[5] = biological target: cysteines in MDA-MB-231 and Ramos cells (Homo sapiens, UniProt O60610)
Chain of cysteines in MDA-MB-231 and Ramos cells (Homo sapiens, UniProt O60610) (O60610 whole entry): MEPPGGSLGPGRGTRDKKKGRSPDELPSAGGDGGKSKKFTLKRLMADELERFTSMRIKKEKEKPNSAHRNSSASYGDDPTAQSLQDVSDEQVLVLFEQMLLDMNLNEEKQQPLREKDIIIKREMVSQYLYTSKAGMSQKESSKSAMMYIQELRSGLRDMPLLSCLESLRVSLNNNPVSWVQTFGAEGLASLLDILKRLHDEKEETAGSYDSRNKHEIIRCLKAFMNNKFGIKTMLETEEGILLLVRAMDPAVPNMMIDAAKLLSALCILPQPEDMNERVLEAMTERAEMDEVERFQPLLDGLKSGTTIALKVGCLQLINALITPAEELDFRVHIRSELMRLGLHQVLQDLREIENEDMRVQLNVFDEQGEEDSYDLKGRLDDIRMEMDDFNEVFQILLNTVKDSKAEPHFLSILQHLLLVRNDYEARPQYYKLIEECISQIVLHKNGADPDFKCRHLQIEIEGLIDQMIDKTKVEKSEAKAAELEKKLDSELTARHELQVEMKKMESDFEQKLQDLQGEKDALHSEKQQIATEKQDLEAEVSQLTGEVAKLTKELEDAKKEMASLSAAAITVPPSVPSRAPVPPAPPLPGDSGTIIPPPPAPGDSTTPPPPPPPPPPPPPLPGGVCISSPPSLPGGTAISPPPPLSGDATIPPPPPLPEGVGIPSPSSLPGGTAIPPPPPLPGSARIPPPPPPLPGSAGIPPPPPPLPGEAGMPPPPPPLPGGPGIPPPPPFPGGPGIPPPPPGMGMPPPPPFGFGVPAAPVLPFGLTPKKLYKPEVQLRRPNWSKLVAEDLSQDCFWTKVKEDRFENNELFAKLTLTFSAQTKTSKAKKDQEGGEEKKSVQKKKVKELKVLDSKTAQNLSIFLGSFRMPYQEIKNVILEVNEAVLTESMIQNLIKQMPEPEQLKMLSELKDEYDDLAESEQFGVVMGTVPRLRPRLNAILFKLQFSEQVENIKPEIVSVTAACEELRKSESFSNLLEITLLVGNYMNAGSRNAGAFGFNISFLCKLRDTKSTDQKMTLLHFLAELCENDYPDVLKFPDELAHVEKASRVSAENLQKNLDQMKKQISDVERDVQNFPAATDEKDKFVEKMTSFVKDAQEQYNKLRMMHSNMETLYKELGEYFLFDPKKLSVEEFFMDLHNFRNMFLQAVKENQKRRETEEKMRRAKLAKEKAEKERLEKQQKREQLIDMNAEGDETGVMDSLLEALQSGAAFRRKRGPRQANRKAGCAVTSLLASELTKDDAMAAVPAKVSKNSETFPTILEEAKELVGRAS

[6] = biological target: cysteines in MDA-MB-231 and Ramos cells (Homo sapiens, UniProt Q13526)
Chain of cysteines in MDA-MB-231 and Ramos cells (Homo sapiens, UniProt Q13526) (Q13526 whole entry): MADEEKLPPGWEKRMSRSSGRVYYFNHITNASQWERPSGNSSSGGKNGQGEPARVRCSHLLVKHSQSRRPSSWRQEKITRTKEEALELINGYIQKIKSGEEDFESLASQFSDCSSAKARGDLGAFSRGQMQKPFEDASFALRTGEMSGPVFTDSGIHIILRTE

[7] = biological target: T3, cysteines in MDA-MB-231 and Ramos cells (Homo sapiens, UniProt Q9Y277)
T3 sequence (Q9Y277 1-283): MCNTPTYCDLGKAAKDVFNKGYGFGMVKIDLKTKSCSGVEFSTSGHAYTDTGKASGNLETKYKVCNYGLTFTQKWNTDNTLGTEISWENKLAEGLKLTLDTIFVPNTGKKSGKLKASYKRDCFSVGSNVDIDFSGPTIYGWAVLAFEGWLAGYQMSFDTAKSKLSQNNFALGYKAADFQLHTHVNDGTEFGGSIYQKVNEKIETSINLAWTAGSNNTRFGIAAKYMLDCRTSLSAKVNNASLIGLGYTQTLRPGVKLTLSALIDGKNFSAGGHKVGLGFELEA

[8] = biological target: cysteines in MDA-MB-231 and Ramos cells (Homo sapiens, UniProt Q9ULV4)
Chain of cysteines in MDA-MB-231 and Ramos cells (Homo sapiens, UniProt Q9ULV4) (Q9ULV4 whole entry): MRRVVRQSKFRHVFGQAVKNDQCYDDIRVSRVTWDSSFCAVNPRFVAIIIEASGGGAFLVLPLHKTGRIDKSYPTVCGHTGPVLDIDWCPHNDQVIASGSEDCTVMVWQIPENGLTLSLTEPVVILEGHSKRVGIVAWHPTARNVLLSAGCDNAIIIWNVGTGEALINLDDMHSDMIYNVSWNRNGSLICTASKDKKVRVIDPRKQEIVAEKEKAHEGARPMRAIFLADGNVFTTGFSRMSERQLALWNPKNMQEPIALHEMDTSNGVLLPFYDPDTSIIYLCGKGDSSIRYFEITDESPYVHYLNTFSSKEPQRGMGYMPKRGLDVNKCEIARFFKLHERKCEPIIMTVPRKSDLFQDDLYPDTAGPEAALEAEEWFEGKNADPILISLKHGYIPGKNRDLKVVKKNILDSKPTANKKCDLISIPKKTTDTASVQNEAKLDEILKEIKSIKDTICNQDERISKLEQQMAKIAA

[9] = biological target: T4, cysteines in MDA-MB-231 and Ramos cells (Homo sapiens, UniProt Q15233)
T4 sequence (Q15233 1-471): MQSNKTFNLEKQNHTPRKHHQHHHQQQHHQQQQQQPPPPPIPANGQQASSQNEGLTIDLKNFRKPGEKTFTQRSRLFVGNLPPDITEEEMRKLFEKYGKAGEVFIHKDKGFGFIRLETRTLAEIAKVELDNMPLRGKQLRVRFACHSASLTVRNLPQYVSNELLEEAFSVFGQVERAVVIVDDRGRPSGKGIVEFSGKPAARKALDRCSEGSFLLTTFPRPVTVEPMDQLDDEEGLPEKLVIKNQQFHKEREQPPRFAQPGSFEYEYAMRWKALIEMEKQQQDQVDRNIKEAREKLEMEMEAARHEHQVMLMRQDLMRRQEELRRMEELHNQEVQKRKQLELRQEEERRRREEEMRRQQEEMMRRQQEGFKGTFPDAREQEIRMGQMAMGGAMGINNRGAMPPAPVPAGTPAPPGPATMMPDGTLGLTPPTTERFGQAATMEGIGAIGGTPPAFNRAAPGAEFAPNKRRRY

[10] = biological target: T5, cysteines in MDA-MB-231 and Ramos cells (Homo sapiens, UniProt Q9Y3D0)
T5 sequence (Q9Y3D0 1-163): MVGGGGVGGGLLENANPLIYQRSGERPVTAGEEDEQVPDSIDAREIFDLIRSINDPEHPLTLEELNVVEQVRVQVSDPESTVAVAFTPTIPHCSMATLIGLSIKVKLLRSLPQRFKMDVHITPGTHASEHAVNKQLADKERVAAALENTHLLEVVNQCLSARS

[11] = biological target: T6, cysteines in MDA-MB-231 and Ramos cells (Homo sapiens, UniProt P10599)
T6 sequence (P10599 1-105): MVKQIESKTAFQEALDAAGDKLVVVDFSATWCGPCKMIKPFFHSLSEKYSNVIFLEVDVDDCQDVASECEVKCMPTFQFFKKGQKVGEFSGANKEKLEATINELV

Row | Compound | isoTOP-ABPP ratio P62888_C92 ([1]; 200 μM, insitu, 231) | isoTOP-ABPP ratio P62888_C92 ([1]; 200 μM, insitu, ramos) | isoTOP-ABPP ratio Q9ULW0_C536 ([2]; 200 μM, insitu, 231) | isoTOP-ABPP ratio P30101_C406 ([3]; 200 μM, insitu, ramos) | isoTOP-ABPP ratio Q16831_C162 ([4]; 200 μM, insitu, 231) | isoTOP-ABPP ratio O60610_C1227 ([5]; 200 μM, insitu, 231) | isoTOP-ABPP ratio O60610_C1227 ([5]; 200 μM, insitu, ramos) | isoTOP-ABPP ratio Q13526_C113 ([6]; 200 μM, insitu, 231) | isoTOP-ABPP ratio Q13526_C113 ([6]; 200 μM, insitu, ramos) | isoTOP-ABPP ratio Q9Y277_C65 ([7]; 200 μM, insitu, 231) | isoTOP-ABPP ratio Q9ULV4_C420 ([8]; 200 μM, insitu, 231) | isoTOP-ABPP ratio Q15233_C145 ([9]; 200 μM, insitu, 231) | isoTOP-ABPP ratio Q15233_C145 ([9]; 200 μM, insitu, ramos) | isoTOP-ABPP ratio P10599_C32 ([11]; 200 μM, insitu, 231) | isoTOP-ABPP ratio P30101_C57 ([3]; 200 μM, insitu, 231) | isoTOP-ABPP ratio P30101_C406 ([3]; 200 μM, insitu, 231) | isoTOP-ABPP ratio Q9Y3D0_C93 ([10]; 200 μM, insitu, 231) | other results
1 | O=C(CCl)NCCc1c[nH]c2ccccc12 [compound 13] | 0.8 | 2.0 | 1.5 | 2.0 | 1.0 | 0.7 | 0.9 | 0.9 | 1.0 | 1.0 | 1.1 | 1.0 | 1.1 | 7.9 |  |  |  | isoTOP-ABPP ratio P30101_C57 ([3]; 200 μM, insitu, ramos): 1.6; isoTOP-ABPP ratio Q9ULV4_C420 ([8]; 200 μM, insitu, ramos): 1.1; isoTOP-ABPP ratio Q9Y3D0_C93 ([10]; 200 μM, insitu, ramos): 1.4; isoTOP-ABPP ratio P10599_C32 ([11]; 200 μM, insitu, ramos): 4.1
2 | COc1ccc(C2CC(c3cccs3)=NN2C(=O)CCl)cc1 (stereo not shown) [compound 4] |  |  |  |  |  |  |  |  |  |  |  |  |  |  |  |  |  | isoTOP-ABPP reactivity P62888_C92 RPL30 ([1]; 100 μM in situ 231): 2.7; isoTOP-ABPP reactivity Q9ULW0_C536 TPX2 ([2]; 100 μM in situ 231): 20.0; isoTOP-ABPP reactivity P30101_057 PDIA3 ([3]; 100 μM in situ 231): 20.0; isoTOP-ABPP reactivity P30101_C406 PDIA3 ([3]; 100 μM in situ 231): 9.0; isoTOP-ABPP reactivity Q16831_C162 UPP1 ([4]; 100 μM in situ 231): 1.0; isoTOP-ABPP reactivity O60610_C1227 DIAPH1 ([5]; 100 μM in situ 231): 1.6; isoTOP-ABPP reactivity Q13526_C113 PIN1 ([6]; 100 μM in situ 231): 3.4; isoTOP-ABPP reactivity Q9Y277_C65 VDAC3 ([7]; 100 μM in situ 231): 4.7; isoTOP-ABPP reactivity Q9ULV4_C420 CORO1C ([8]; 100 μM in situ 231): 1.3; isoTOP-ABPP reactivity Q15233_C145 NONO ([9]; 100 μM in situ 231): 1.6; isoTOP-ABPP reactivity Q9Y3D0_C93 FAM96B ([10]; 100 μM in situ 231): 20.0; isoTOP-ABPP reactivity P10599_C32 TXN ([11]; 100 μM in situ 231): 3.3
3 | Cn1cc(S(=O)(=O)N2CCOCC2)cc1C(=O)NC(=O)CCl [compound 11] |  |  |  |  |  |  |  |  |  |  |  |  |  |  |  |  |  | isoTOP-ABPP ratio P62888_C92 ([1]; 100 μM in situ 231): 0.8; isoTOP-ABPP ratio Q9ULW0_C536 ([2]; 100 μM in situ 231): 1.4; isoTOP-ABPP ratio P30101_C57 ([3]; 100 μM in situ 231): 2.2; isoTOP-ABPP ratio Q16831_C162 ([4]; 100 μM in situ 231): 0.8; isoTOP-ABPP ratio O60610_C1227 ([5]; 100 μM in situ 231): 0.9; isoTOP-ABPP ratio Q13526_C113 ([6]; 100 μM in situ 231): 0.7; isoTOP-ABPP ratio Q9Y277_C65 ([7]; 100 μM in situ 231): 1.4; isoTOP-ABPP ratio Q9ULV4_C420 ([8]; 100 μM in situ 231): 0.9; isoTOP-ABPP ratio Q15233_C145 ([9]; 100 μM in situ 231): 1.2; isoTOP-ABPP ratio Q9Y3D0_C93 ([10]; 100 μM in situ 231): 0.9; isoTOP-ABPP ratio P10599_C32 ([11]; 100 μM in situ 231): 13.0
4 | C=CC(=O)Nc1cc(F)c(N2CCN(C(=O)OC(C)(C)C)CC2)c(F)c1 [compound 38] | 3.2 |  | 1.2 |  | 1.4 | 0.3 |  | 1.0 |  | 20.0 | 1.4 | 0.9 |  | 2.1 | 0.9 | 0.8 | 2.4 | 
5 | CC(C)CCOCCNC(=O)CCl [compound 27] | 0.6 |  | 1.1 |  | 0.5 | 0.5 |  | 0.5 |  | 1.6 | 0.8 | 1.2 |  | 2.5 | 1.1 | 1.2 | 0.7 | 
6 | O=C(CCl)N1CCN(S(=O)(=O)c2ccccc2F)CC1 [compound 10] | 1.3 | 4.5 | 17.6 | 1.4 | 7.3 | 1.5 | 1.4 | 2.0 | 1.3 | 3.3 | 3.4 |  | 2.2 | 3.8 | 3.3 | 3.3 | 2.1 | isoTOP-ABPP ratio Q9Y277_C65 ([7]; 200 μM, insitu, ramos): 2.5
